In patent US9822074B2, “Dihydropyridinone MGAT2 inhibitors” (BRISTOL-MYERS SQUIBB COMPANY, priority 2013, dated 2017):

Target: human MGAT2 (Homo sapiens (Human), UniProt Q3SYC2)
Assay: MGAT LCMS Assay (MGAT2 in vitro enzyme assay)
Type: biochemical
Conditions: Human MGAT-2 membranes expressed in Sf9 cells; 100 μM 2-oleoylglycerol, 15 μM oleoyl-Coenzyme A; read-out: h-MGAT LCMS IC50
Protocol: The MGAT enzyme reactions were performed in Corning FALCON® 96-well Polypropylene plates, in a total volume of 60 μL of 50 mM Potassium Phosphate buffer pH 7.4, containing a final concentration of 100 μM 2-oleoylglycerol, 15 μM oleoyl-Coenzyme A and 0.0013 μg/μL Human or Mouse MGAT-2 or 0.0026 μg/μL Rat recombinant MGAT-2 membranes expressed in Sf9 cells. Assay plates were run through a fully automated robotics system and shaken for 5 seconds every minute for a total 10 minutes. The reactions were then quenched with 120 μL of ice cold methanol containing 1 μg/mL 1,2-distearoyl-rac-glycerol as the internal standard. Plates were shaken for 2 minutes and spun down to remove protein precipitation. After the spin, samples were transferred to LC/MS compatible PCR plates. For LC/MS analysis, a ThermoFisher Surveyor pump, utilizing a Waters Symmetry C8, 50×2.1 mm column, was used for the chromatography of enzyme products. The buffer system consists of 0.1% formic acid in water with a mobile phase consisting 0.1% formic acid in methanol. The shallow gradient is 90-100% mobile phase in 0.2 min with a total run time of 2.3 min. The first 0.5 minutes of each injection was diverted to waste to eliminate the presence of Phosphate buffer in the enzymatic reaction. The column was run at 0.6 mL/min and a temperature of 65° C. […]

Sequence of human MGAT2 (Q3SYC2 whole entry): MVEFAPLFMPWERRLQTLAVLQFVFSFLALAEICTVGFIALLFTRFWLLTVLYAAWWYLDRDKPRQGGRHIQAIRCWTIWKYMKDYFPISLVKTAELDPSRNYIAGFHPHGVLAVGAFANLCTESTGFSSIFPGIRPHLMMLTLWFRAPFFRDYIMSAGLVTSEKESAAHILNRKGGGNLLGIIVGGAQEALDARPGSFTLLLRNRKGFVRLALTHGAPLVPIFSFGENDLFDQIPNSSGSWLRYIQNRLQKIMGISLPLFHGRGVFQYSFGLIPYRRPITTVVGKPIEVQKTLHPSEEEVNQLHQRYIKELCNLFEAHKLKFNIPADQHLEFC

Row | IC50 [nM] | SMILES
1 | 16 | O=C1N[C@@](c2ccc(CCCCC(F)(F)F)cc2F)(C(F)(F)F)CC(c2ccn(C3CCC3)n2)=C1C(=O)NS(=O)(=O)C1CC1 [Example 50, (S)-4-(1-cyclobutyl-1H-pyrazol-3-yl)-N-(cyclopropylsulfonyl)-6-(2-fluoro-4-(5,5,5-trifluoropentyl)phenyl)-2-oxo-6-(trifluoromethyl)-1,2,5,6-tetrahydropyridine-3-carboxamide]
2 | 35 | CC(C)n1ccc(C2=C(C(=O)NS(=O)(=O)C3CC3)C(=O)N[C@@](c3ccc(CCCCC(F)(F)F)cc3F)(C(F)(F)F)C2)n1 [Example 49, (S)-N-(cyclopropylsulfonyl)-6-(2-fluoro-4-(5,5,5-trifluoropentyl)phenyl)-4-(1-isopropyl-1H-pyrazol-3-yl)-2-oxo-6-(trifluoromethyl)-1,2,5,6-tetrahydropyridine-3-carboxamide]
